Results on one substance are retold here after patent US11266715B2, “C3A receptor agonists for use against ischemic brain injury, stroke, traumatic brain injury, spinal cord injury and neurodegenerative disorders” (priority 2016, dated 2022).

For this experiment, the system named is WT mice subjected to photothrombotic stroke in the motor cortex. In words: Infarct volume after photothrombotic stroke, intranasal treatment. Type of experiment: in vivo, mouse. The settings on record: intranasal C3a daily days 7-21 post-stroke vs PBS; P=0.429. The procedure:
Cortical photothrombosis was induced using the Rose Bengal method (Lee et al., 2007; Watson et al., 1985) with some modifications. Anesthesia was induced with isoflurane (Forene®, Abbott) in air and oxygen (1:1) initially at 5% and reduced to 2.5% during the surgical procedure. Body temperature was monitored by a rectal probe and maintained at 37° C. using a homeothermic control unit (Harvard Apparatus). Anesthetized mice were placed in a stereotaxic frame, the skull was exposed through a midline scalp incision and Rose Bengal (200 μl, 10 mg/ml solution in sterile saline, Sigma) was injected intraperitoneally. […] Mice were provided with moist mashed food placed on the floor of the home cage and their weight was monitored daily for 7 days after surgery. […]
Purified human C3a peptide (Complement Technologies) was diluted in sterile phosphate buffered saline (PBS) to a concentration of 200 nM and a total of 20 μl (10 μl/nostril; corresponding to approximately 1.13 μg/kg body weight) of peptide solution or PBS was given intranasally to awake, hand-restrained mice held in a supine position. […] For the assessment of potential systemic anaphylactic response due to intranasal C3a inoculation, body temperature was monitored using a rectal temperature probe (Harvard Apparatus) inserted approximately 4 mm into the rectum of awake mice restrained by the scruff. […]

As for “C3a: Purified human C3a peptide (Complement Technologies), C3a receptor agonist, amino acid sequence SEQ ID NO: 1”, the infarct volume entry is given as “no effect on infarct volume”.
